# Assay results as given in patent EP0000336A1, “N-benzylpyrimidinyl-amidines, process for their preparation and medicines containing them” (BASF Aktiengesellschaft, priority 1977, dated 1979).
# System: Streptococcus agalactiae 7941
# Assay: Aronson sepsis model in mice, sulfonamide potentiation compared with trimethoprim
# Assay type: in vivo
# Conditions: female mice (groups of 30), lethal dose of Streptococcus agalactiae 7941; treated 2 h after infection with 300 mg 2-Sulfanilamido-4,5-dimethyloxazol + 60 mg test substance; survivors after 44 h divided by survivors of the group given 300 mg 2-Sulfanilamido-4,5-dimethyloxazol + 60 mg Trimethoprim
# Description: Verwendet man beispielsweise N-[4-Amino-5-(3,4,5-trimethoxybenzyl)-pyrimidin-2-yl]-acetamidsäureäthylester und Anilin als Ausgangsstoffe, so kann der Reaktionsverlauf durch folgendes Formelschema wiedergegeben werden: [drawing 7] 2um Wirksamkeitsnachweis wurden erfindungsgemäße Substanzen im Tierversuch am Modell der sogenannten Aronson-Sepsis, wobei mit Streptococcus agalactiae infiziert wird, geprüft und mit dem bekannten Trimethoprim verglichen. Hierzu wurden Gruppen von je 30 weiblichen Mäusen mit einer tödlichen Dosis von Streptococcus agalactiae 7941 infiziert und 2 Stunden nach der Infektion mit einer Mischung von 300 mg 2-Sulfanilamido-4,5-dimethyloxazol + 60 mg einer der erfindungsgemäßen Substanzen behandelt. Außer einer nicht behandelten Kontrollgruppe wurde eine zweite Gruppe mit dem als Referenzsubstanz dienenden Gemisch von 300 mg 2-Sulfanilamido-4,5-dimethyloxazol + 60 mg Trimethoprim behandelt. Nach 44 Stunden wurde die Zahl der überlebenden Tiere bestimmt und diese Zahl durch die Zahl der überlebenden aus der mit der Referenzsubstanz behandelten Gruppe dividiert. Der so erhaltene Zahlenwert (Trimethoprimfaktor) ist ein Maß für die Wirkung der erfindungsgemäßen Substanzen im Vergleich zum Trimethoprim. F = 2 bedeutet also, daß die Substanz doppelt so wirksam ist wie Trimethoprim. […]
smiles,measurement,value
COc1cc(Cc2cnc(N=C(C)N(C)C)nc2N)cc(OC)c1OC [Beispiel 1],F (Trimethoprimfaktor),"1,2"
